Test results: ChEMBL document CHEMBL1201862, “PubChem BioAssay data set” (2004)
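The compound was tested at five concentrations on cells cultured in 96-well plates, with a 48-hour exposure period. The concentration for 50% growth inhibition is given as GI50.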 Calls of active or inactive are those of the source. Cut-off read from the data, not from the text of the source: active = GI50 up to about 1.1 µM and inactive = higher.

Legend:
Assay in all cases: inhibition of tumour cell growth, NCI panel, 48 h
[1] = test system: A498
[2] = test system: ACHN
[3] = test system: BT-549
[4] = test system: CAKI-1
[5] = test system: CCRF-CEM
[6] = test system: HCT-116
[7] = test system: HCT-15
[8] = test system: K562
[9] = test system: LOX IMVI
[10] = test system: MCF7
[11] = test system: MDA-MB-231
[12] = test system: MDA-MB-435
[13] = test system: NCI/ADR-RES
[14] = test system: OVCAR-8
[15] = test system: PC-3
[16] = test system: SF-539
[17] = test system: SK-MEL-5
[18] = test system: UACC-257
[19] = test system: UACC-62
[20] = test system: RXF 393

Structure (SMILES)	GI50 [1]	GI50 [2]	GI50 [3]	GI50 [4]	GI50 [5]	GI50 [6]	GI50 [7]	GI50 [8]	GI50 [9]	GI50 [10]	GI50 [11]	GI50 [12]	GI50 [13]	GI50 [14]	GI50 [15]	GI50 [16]	GI50 [17]	GI50 [18]	GI50 [19]	GI50 [20]
O=C(/C=C/c1cc(O)c(O)cc1O)OCCc1ccccc1	21.2 µM (inactive)	12.2 µM (inactive)	25.7 µM (inactive)	24.5 µM (inactive)	2.07 µM (inactive)	> 41.7 µM (inactive)	22.2 µM	2.28 µM (inactive)	12.9 µM (inactive)	15 µM (inactive)	23.5 µM (inactive)	20.2 µM (inactive)	27.2 µM (inactive)	9.57 µM (inactive)	17.3 µM (inactive)	18.6 µM (inactive)	18.7 µM (inactive)	34.8 µM (inactive)	17.9 µM (inactive)	
CN(C)Cc1ccc(-c2cc3onc(-c4ccccc4)c3c(=O)n2C)cc1	22.6 µM (inactive)	67.5 µM (inactive)	38.5 µM (inactive)	85.3 µM (inactive)		14.4 µM (inactive)	20.5 µM	17.7 µM (inactive)	17.9 µM (inactive)	41.2 µM (inactive)	28.5 µM (inactive)	19.2 µM (inactive)	41.5 µM (inactive)	47.5 µM (inactive)	39.8 µM (inactive)	20.3 µM (inactive)	17.9 µM (inactive)	18.3 µM (inactive)	25.9 µM (inactive)	
Nc1ncnc2c1ncn2C1OC(CO)C(O)C(O)C1O (stereo not given)	> 100 µM (inactive)	> 100 µM (inactive)	> 100 µM (inactive)	> 100 µM (inactive)	> 100 µM (inactive)	> 100 µM (inactive)	> 100 µM	> 100 µM (inactive)	> 100 µM (inactive)	> 100 µM (inactive)	> 100 µM (inactive)	> 100 µM (inactive)	> 100 µM (inactive)	> 100 µM (inactive)	> 100 µM (inactive)	> 100 µM (inactive)	> 100 µM (inactive)	> 100 µM (inactive)		
CCOC(=O)c1cc(=O)c2cccc3c2n1CCS3	83.8 µM (inactive)	> 100 µM (inactive)	42.9 µM (inactive)	> 100 µM (inactive)	> 100 µM (inactive)	> 100 µM (inactive)	> 100 µM		> 100 µM (inactive)	> 100 µM (inactive)	> 100 µM (inactive)	> 100 µM (inactive)	> 100 µM (inactive)	> 100 µM (inactive)	> 100 µM (inactive)	> 100 µM (inactive)	> 100 µM (inactive)	> 100 µM (inactive)	> 100 µM (inactive)	
CC(=O)N/N=C1\NC(=O)C[C@H]2[C@@H]3CC=C4C[C@@H](OC(C)=O)CC[C@]4(C)[C@H]3CC[C@]12C	18.7 µM (inactive)	21.5 µM (inactive)	12.4 µM (inactive)	> 100 µM (inactive)	> 100 µM (inactive)	67 µM (inactive)	38.2 µM	> 100 µM (inactive)	35.4 µM (inactive)	46.9 µM (inactive)	18.7 µM (inactive)	4.06 µM (inactive)	39.4 µM (inactive)	25.1 µM (inactive)	29.9 µM (inactive)	7.33 µM (inactive)	50.8 µM (inactive)	18.7 µM (inactive)	16.8 µM (inactive)	
O=C(NNC(=O)c1csc(NC(=S)NC2CCCCC2)n1)c1ccccc1	38 µM (inactive)	11.4 µM (inactive)	17.3 µM (inactive)	18.6 µM (inactive)	3.61 µM (inactive)	2.7 µM (inactive)	2.74 µM		10.3 µM (inactive)	2.06 µM (inactive)	13.5 µM (inactive)	15.6 µM (inactive)	4.85 µM (inactive)	6.52 µM (inactive)	7.82 µM (inactive)	15 µM (inactive)	6.71 µM (inactive)	7.96 µM (inactive)	10.2 µM (inactive)	
CN(C)S(=O)(=O)/N=C/c1cccc(/C=N/S(=O)(=O)N(C)C)c1	> 100 µM (inactive)	> 100 µM (inactive)	38.1 µM (inactive)	> 100 µM (inactive)	74.8 µM (inactive)	33.3 µM (inactive)	> 100 µM	52.4 µM (inactive)	> 100 µM (inactive)	46.7 µM (inactive)	> 100 µM (inactive)	44.8 µM (inactive)	81.7 µM (inactive)	51.3 µM (inactive)	> 100 µM (inactive)	23.9 µM (inactive)	55.1 µM (inactive)	> 100 µM (inactive)	> 100 µM (inactive)	
CSc1nc(NC2CC2)c2c(n1)Sc1nc3ccccc3n1N=C2	10.5 µM (inactive)	11 µM (inactive)	34.2 µM (inactive)	34.9 µM (inactive)	> 100 µM (inactive)	9.73 µM (inactive)	28.4 µM	> 100 µM (inactive)	31.8 µM (inactive)	26.6 µM (inactive)	17.8 µM (inactive)	35.5 µM (inactive)	20.3 µM (inactive)	10.1 µM (inactive)	29.5 µM (inactive)	12.2 µM (inactive)	17 µM (inactive)	41.3 µM (inactive)	17.9 µM (inactive)	
CCOC(=O)c1ccc(/N=c2\oc3ccc(OC)cc3cc2-c2nc3ccccc3[nH]2)cc1		> 100 µM (inactive)	> 100 µM (inactive)	> 100 µM (inactive)	> 100 µM (inactive)	> 100 µM (inactive)	> 100 µM	72.8 µM (inactive)	> 100 µM (inactive)	36.5 µM (inactive)	53.7 µM (inactive)	30.5 µM (inactive)	> 100 µM (inactive)	4.21 µM (inactive)	> 100 µM (inactive)	1.99 µM (inactive)	5.66 µM (inactive)	> 100 µM (inactive)	> 100 µM (inactive)	40.6 µM (inactive)
O=C(O)CN1CCN2CCCCCCCCN(CC1)CCN(CC(=O)O)CC2	> 100 µM (inactive)	> 100 µM (inactive)	> 100 µM (inactive)	> 100 µM (inactive)	> 100 µM (inactive)	> 100 µM (inactive)	> 100 µM	> 100 µM (inactive)	> 100 µM (inactive)	> 100 µM (inactive)	> 100 µM (inactive)	> 100 µM (inactive)	> 100 µM (inactive)	> 100 µM (inactive)	> 100 µM (inactive)	> 100 µM (inactive)	> 100 µM (inactive)	> 100 µM (inactive)	> 100 µM (inactive)	
O=[N+]([O-])c1ccc(C2=NOC(c3ccccc3)N2C23CC4CC(CC(C4)C2)C3)cc1 (stereo not given)	> 100 µM (inactive)	20.1 µM (inactive)	19.8 µM (inactive)	1.36 µM (inactive)	21.7 µM (inactive)	22.1 µM (inactive)	29.8 µM	19.1 µM (inactive)	15.9 µM (inactive)	24.8 µM (inactive)	31.4 µM (inactive)	21.8 µM (inactive)	35.8 µM (inactive)	21.5 µM (inactive)	20.5 µM (inactive)	54 µM (inactive)	22.2 µM (inactive)	47.8 µM (inactive)	20.8 µM (inactive)	
